Test results: PubChem BioAssay AID256 (DTP/NCI, 2004)
Several values for one entry are separate records, joined by “and”; a condition that tells them apart may be missing. Equal values may be shown once. Inconclusive results and toxic doses are left out.

System: CD2F1 mice, L1210 leukemia ip, survival T/C
Test: NCI In Vivo Anticancer Drug Screen. Data for tumor model L1210 Leukemia (intraperitoneal) in CD2F1 (CDF1) mice
Conditions: higher = longer survival
How it was run: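 Read-out first: treated-group measurement over vehicle-control measurement, expressed as a ratio. Animals bore a transplanted tumor line and were dosed with compound or vehicle.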

[1] = endpoint: mean survival time, dose: 6.25 mg/kg/injection, schedule: Q01DX009 (ip), vehicle: saline with Tween-80
[2] = endpoint: mean survival time, dose: 12.5 mg/kg/injection, schedule: Q01DX009 (ip), vehicle: saline with Tween-80
[3] = endpoint: mean survival time, dose: 50.0 mg/kg/injection, schedule: Q01DX009 (ip), vehicle: saline with Tween-80
[4] = endpoint: mean survival time, dose: 100.0 mg/kg/injection, schedule: Q01DX009 (ip), vehicle: saline with Tween-80
[5] = endpoint: mean survival time, dose: 100.0 mg/kg/injection, schedule: Q04DX003 (ip), vehicle: other
[6] = endpoint: mean survival time, dose: 200.0 mg/kg/injection, schedule: Q04DX003 (ip), vehicle: other
[7] = endpoint: mean survival time, dose: 100.0 mg/kg/injection, schedule: Q04DX003 (ip), vehicle: saline with Tween-80
[8] = endpoint: mean survival time, dose: 200.0 mg/kg/injection, schedule: Q04DX003 (ip), vehicle: saline with Tween-80
[9] = endpoint: mean survival time, dose: 400.0 mg/kg/injection, schedule: Q04DX003 (ip), vehicle: saline with Tween-80
[10] = endpoint: mean survival time, dose: 200.0 mg/kg/injection, schedule: Q01DX009 (ip), vehicle: saline with Tween-80
[11] = endpoint: mean survival time, dose: 400.0 mg/kg/injection, schedule: Q01DX009 (ip), vehicle: saline with Tween-80
[12] = endpoint: mean survival time, dose: 100.0 mg/kg/injection, schedule: Q01DX001 (ip), vehicle: saline
[13] = endpoint: mean survival time, dose: 200.0 mg/kg/injection, schedule: Q01DX001 (ip), vehicle: saline
[14] = endpoint: mean survival time, dose: 400.0 mg/kg/injection, schedule: Q01DX001 (ip), vehicle: saline

COc1ccc(S(=O)(=O)N/N=C/C(=O)O)cc1
T/C [1]: 115 % of control | T/C (endpoint: mean survival time, dose: 12.5 mg/kg/injection, schedule: Q01DX009 (ip), vehicle: alkali diluted with water): 114 % of control | T/C [2]: 121 % of control | T/C (endpoint: mean survival time, dose: 12.5 mg/kg/injection, schedule: Q04DX003 (ip), vehicle: other): 109 % of control | T/C (endpoint: mean survival time, dose: 25.0 mg/kg/injection, schedule: Q01DX009 (ip), vehicle: alkali diluted with water): 116 % of control | T/C (endpoint: mean survival time, dose: 25.0 mg/kg/injection, schedule: Q04DX003 (ip), vehicle: other): 117 % of control | T/C (endpoint: mean survival time, dose: 50.0 mg/kg/injection, schedule: Q01DX009 (ip), vehicle: alkali diluted with water): 124 % of control | T/C [3]: 163 % of control | T/C (endpoint: mean survival time, dose: 50.0 mg/kg/injection, schedule: Q04DX003 (ip), vehicle: other): 124 % of control | T/C [4]: 151 % of control | T/C [5]: 154 % of control | T/C (endpoint: mean survival time, dose: 200.0 mg/kg/injection, schedule: Q01DX009 (ip), vehicle: alkali diluted with water): 153 % of control | T/C [6]: 155 % of control and 163 % of control and 203 % of control | T/C (endpoint: median survival time, dose: 12.5 mg/kg/injection, schedule: Q01DX009 (oral), vehicle: saline with Tween-80): 105 % of control | T/C (endpoint: median survival time, dose: 25.0 mg/kg/injection, schedule: Q01DX009 (oral), vehicle: saline with Tween-80): 105 % of control | T/C (endpoint: median survival time, dose: 50.0 mg/kg/injection, schedule: Q01DX009 (oral), vehicle: saline with Tween-80): 103 % of control | T/C (endpoint: median survival time, dose: 100.0 mg/kg/injection, schedule: Q01DX009 (oral), vehicle: saline with Tween-80): 95 % of control | T/C (endpoint: median survival time, dose: 200.0 mg/kg/injection, schedule: Q01DX009 (oral), vehicle: saline with Tween-80): 98 % of control | T/C (endpoint: median survival time, dose: 400.0 mg/kg/injection, schedule: Q01DX009 (oral), vehicle: saline with Tween-80): 105 % of control

CC[C@@]1(O)C[C@H](OC2CC(N(C)C)C(OC3CC(O)C(OC4CCC(=O)C(C)O4)C(C)O3)C(C)O2)c2c(cc3c(c2O)C(=O)c2c(O)ccc(O)c2C3=O)[C@H]1C(=O)OC (some centres not stated)
T/C (endpoint: mean survival time, dose: 0.25 mg/kg/injection, schedule: Q01DX009 (ip), vehicle: water): 101 % of control and 109 % of control | T/C (endpoint: mean survival time, dose: 0.5 mg/kg/injection, schedule: Q01DX009 (ip), vehicle: water): 113 % of control and 117 % of control and 119 % of control | T/C (endpoint: mean survival time, dose: 1.0 mg/kg/injection, schedule: Q01DX009 (ip), vehicle: water): 122 % of control | T/C (endpoint: mean survival time, dose: 4.0 mg/kg/injection, schedule: Q01DX009 (ip), vehicle: water): 89 % of control

CCCCCCCC(=O)[O][Hg][CH2]C1COC([CH2][Hg][O]C(=O)CCCCCCC)CO1 (configuration not stated)
T/C [1]: 106 % of control | T/C [2]: 96 % of control

CC1(C)CC(=O)C2(C)CCC(=O)C=C2C1 (configuration not stated)
T/C [7]: 101 % of control | T/C [8]: 100 % of control | T/C [9]: 100 % of control

Cc1ccc(/C(=N\Nc2ccc([N+](=O)[O-])cc2[N+](=O)[O-])C2CC2c2ccccc2)cc1 (configuration not stated)
T/C (endpoint: mean survival time, dose: 50.0 mg/kg/injection, schedule: Q04DX002 (ip), vehicle: saline with Tween-80): 91 % of control | T/C (endpoint: mean survival time, dose: 100.0 mg/kg/injection, schedule: Q04DX002 (ip), vehicle: saline with Tween-80): 105 % of control | T/C (endpoint: mean survival time, dose: 200.0 mg/kg/injection, schedule: Q04DX002 (ip), vehicle: saline with Tween-80): 91 % of control

Cc1c(Cl)cccc1NC(=O)Nc1ccc(F)c([N+](=O)[O-])c1
T/C (endpoint: mean survival time, dose: 50.0 mg/kg/injection, schedule: Q01DX009 (ip), vehicle: Klucel (hydroxypropylcellulose) (HPC)): 91 % of control | T/C (endpoint: mean survival time, dose: 100.0 mg/kg/injection, schedule: Q01DX009 (ip), vehicle: Klucel (hydroxypropylcellulose) (HPC)): 102 % of control | T/C (endpoint: mean survival time, dose: 200.0 mg/kg/injection, schedule: Q01DX009 (ip), vehicle: Klucel (hydroxypropylcellulose) (HPC)): 98 % of control

Cc1cccc(/C=N\N=C\c2cccc(C)n2)n1
T/C [4]: 96 % of control | T/C [7]: 95 % of control | T/C [10]: 90 % of control | T/C [8]: 91 % of control | T/C [11]: 98 % of control | T/C [9]: 107 % of control

O=C(O)c1c(F)cccc1F
T/C (endpoint: mean survival time, dose: 75.0 mg/kg/injection, schedule: Q01DX001 (ip), vehicle: other): 103 % of control | T/C (endpoint: mean survival time, dose: 150.0 mg/kg/injection, schedule: Q01DX001 (ip), vehicle: other): 100 % of control | T/C (endpoint: mean survival time, dose: 300.0 mg/kg/injection, schedule: Q01DX001 (ip), vehicle: other): 100 % of control

Cc1cc(C)c2[nH]c(=O)c(C)c(C)c2c1
T/C [12]: 96 % of control | T/C [13]: 96 % of control | T/C [14]: 93 % of control

O=C1C=CN(C2OC(COC(=O)c3ccccc3)C(O)C2O)C(=O)C1 (configuration not stated)
T/C (endpoint: median survival time, dose: 67.0 mg/kg/injection, schedule: Q01DX009 (ip), vehicle: saline + Tween-80 + alcohol): 168 % of control | T/C (endpoint: median survival time, dose: 100.0 mg/kg/injection, schedule: Q01DX009 (ip), vehicle: saline + Tween-80 + alcohol): 169 % of control | T/C (endpoint: median survival time, dose: 150.0 mg/kg/injection, schedule: Q01DX009 (ip), vehicle: saline + Tween-80 + alcohol): 165 % of control | T/C (endpoint: median survival time, dose: 225.0 mg/kg/injection, schedule: Q01DX009 (ip), vehicle: saline + Tween-80 + alcohol): 161 % of control

COc1ccc(C(=O)CCCC(=O)O)cc1
T/C [4]: 90 % of control | T/C [10]: 101 % of control | T/C [11]: 97 % of control

OC1CCC2CCCCC2C1 (configuration not stated)
T/C (endpoint: mean survival time, dose: 25.0 mg/kg/injection, schedule: Q04DX003 (ip), vehicle: saline): 107 % of control | T/C (endpoint: mean survival time, dose: 50.0 mg/kg/injection, schedule: Q04DX003 (ip), vehicle: saline): 94 % of control | T/C [7]: 102 % of control | T/C (endpoint: mean survival time, dose: 100.0 mg/kg/injection, schedule: Q04DX003 (ip), vehicle: saline): 98 % of control | T/C [8]: 107 % of control | T/C [9]: 101 % of control

CC(C)(C)/C=N/Nc1ccc([N+](=O)[O-])cc1[N+](=O)[O-]
T/C (endpoint: mean survival time, dose: 100.0 mg/kg/injection, schedule: Q04DX003 (ip), vehicle: acetone): 97 % of control | T/C (endpoint: mean survival time, dose: 200.0 mg/kg/injection, schedule: Q04DX003 (ip), vehicle: acetone): 101 % of control | T/C (endpoint: mean survival time, dose: 400.0 mg/kg/injection, schedule: Q04DX003 (ip), vehicle: acetone): 97 % of control

Cc1ccccc1NC(=O)c1cc2ccccc2cc1O
T/C [4]: 91 % of control | T/C [7]: 102 % of control | T/C [10]: 94 % of control | T/C [8]: 89 % of control | T/C [11]: 94 % of control | T/C [9]: 91 % of control

COc1ccc(SC(=O)N(C)C)cc1
T/C (endpoint: mean survival time, dose: 25.0 mg/kg/injection, schedule: Q01DX009 (ip), vehicle: saline with Tween-80): 100 % of control | T/C [3]: 103 % of control | T/C [4]: 95 % of control and 98 % of control

CCOCCNCc1ccc(Cl)c(Cl)c1
T/C [7]: 93 % of control | T/C [8]: 94 % of control

Nc1ncnc(N)c1N
T/C [4]: 112 % of control

O=[N+]([O-])c1cccc(OCCCOc2ccccc2)c1
T/C [5]: 93 % of control | T/C [6]: 93 % of control | T/C (endpoint: mean survival time, dose: 400.0 mg/kg/injection, schedule: Q04DX003 (ip), vehicle: other): 94 % of control

O=C(Nc1cc(C(F)(F)F)ccc1Cl)c1ccccc1Cl
T/C [4]: 104 % of control | T/C [7]: 103 % of control | T/C [10]: 94 % of control | T/C [8]: 103 % of control | T/C [11]: 104 % of control | T/C [9]: 101 % of control

C[N+](C)(C)C
T/C (endpoint: mean survival time, dose: 5.0 mg/kg/injection, schedule: Q01DX001 (ip), vehicle: saline): 98 % of control | T/C (endpoint: mean survival time, dose: 5.0 mg/kg/injection, schedule: Q01DX009 (ip), vehicle: saline sonified): 95 % of control | T/C (endpoint: mean survival time, dose: 5.0 mg/kg/injection, schedule: Q04DX003 (ip), vehicle: saline): 100 % of control | T/C [1]: 96 % of control | T/C (endpoint: mean survival time, dose: 10.0 mg/kg/injection, schedule: Q01DX009 (ip), vehicle: saline sonified): 87 % of control | T/C (endpoint: mean survival time, dose: 20.0 mg/kg/injection, schedule: Q01DX001 (ip), vehicle: saline): 98 % of control

CCOC(=O)COC(CC[P+](c1ccccc1)(c1ccccc1)c1ccccc1)(C(=O)c1ccccc1)c1ccccc1 (configuration not stated)
T/C (endpoint: mean survival time, dose: 5.0 mg/kg/injection, schedule: Q01DX001 (ip), vehicle: saline with Tween-80): 100 % of control | T/C (endpoint: mean survival time, dose: 6.25 mg/kg/injection, schedule: Q01DX001 (ip), vehicle: saline with Tween-80): 102 % of control | T/C (endpoint: mean survival time, dose: 12.5 mg/kg/injection, schedule: Q01DX001 (ip), vehicle: saline with Tween-80): 97 % of control | T/C (endpoint: mean survival time, dose: 20.0 mg/kg/injection, schedule: Q01DX001 (ip), vehicle: saline with Tween-80): 109 % of control | T/C (endpoint: mean survival time, dose: 25.0 mg/kg/injection, schedule: Q01DX001 (ip), vehicle: saline with Tween-80): 108 % of control

COc1ccc2c(c1)C1(C)C/C(=C\c3ccoc3)C(=O)C(C)C1CC2 (configuration not stated)
T/C [12]: 94 % of control | T/C [13]: 94 % of control | T/C [14]: 102 % of control
